Source: patent US20080292619A1, “Pharmaceutical Composition Containing Meltrin Antagonist” (MOCHIDA PHARMACEUTICAL CO., LTD., priority 2004, published 2008)
In the oligonucleotide strings, read from the 5' end, every base follows the letter of its sugar. An asterisk marks phosphorothioate; unmarked linkages are phosphodiester. Other units and linkages are bracketed, terminal groups are in braces. A string of capitals states the bases alone. d = 2'-deoxy (DNA)

Columns and labels:
[1] = system: human meltrin α RNA; assay: Suppression of human meltrin α expression by antisense compound in RD cell (real time PCR); format: cell-based; conditions: 50 nM; RD cell
How it was run: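 RD cells transfected with heat-denatured antisense oligodeoxynucleotide plus Lipofectin in Opti-MEM for 4 h at 37° C, then cultured 18 h. Meltrin α RNA quantified by TaqMan RT-PCR against plasmid standard curve, GAPDH-corrected; suppression vs untreated cells, rated +/++/+++ for ≥30/50/70%.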

[2] = system: human preadipocyte; assay: Adipocyte proliferation and differentiation, neutral fat accumulation (Adipo Red); format: cell-based; conditions: antibody final concentration 5 μL/mL; 15 days; AdipoRed
Method: The differentiation medium was prepared by adding supplement kit PGM SingleQuots, #PT-9500, Lot.08101163 (Sanko Junyaku Co., Ltd.) to 100 mL of growth medium. 50 μL of the supernatant was removed from the 96 well plate prepared in Example 12, and 50 μL of the siRNA or the antisense oligonucleotide prepared in the differentiation medium was added, and incubation was conducted in a CO2 incubator for 5 days to 15 days.
The amount of neutral fat accumulated in the adipocyte was determined by fluorometry using Adipo Red stain.
After taking the 96 well plate out of the CO2 incubator, the plate was allowed to stand until it cooled to room temperature. The plate was centrifuged at 300 g (1200 rpm) for 10 minutes at room temperature to remove the medium. Next, the plate was gently washed with 200 μL/well of PBS (Sigma), and 200 μL/well of PBS was added to the well.
Next, 5 μL/well of Adipo Red Assay Reagent (Adipo Red, Cat. #PT-7009, Lot.3F0497, A Cambrex Company) was added, and the plate was allowed to stand at room temperature for at least 10 minutes to thereby stain the neutral fat that had accumulated in the adipocyte. The fluorescence intensity was measured in a fluorometer at an excitation wavelength of 485 nm and an emission wavelength of 535 nm to thereby determine the fat accumulation.
According to the method of Example 15, M82463 was added to the human preadipocyte incubation system at a concentration of 0.3 to 10 μg/mL so that the final concentration of the DMSO was 0.2%. As a control, a group having only the DMSO added to a final concentration of 0.2% was used.
After preparation of the antibody to the concentration of 0.100 mg/mL with physiological saline, 9 volumes of adipocyte differentiation medium was added to 1 volume of the antibody solution, and the solution was sterilized by filtering through a filter having a diameter of 0.22 μm (MILLEX-GV 0.22 μm Filter unit, 3slgv013SL, Lot. R2NN83622, MILLIPORE). […]

With “2 (dC*dT*dG*dG*dT*dT*dA*dA*dT*dG*dG*dT*dT*dC*dA*dC*dA*dT*dC*dT) [compound 2]” the “Supression of expression, 50 nM” value [1] was “++ (“++” when the suppression rate was at least 50%)” and the Suppressive effect [2] was “++ (suppression by 50% or higher)”.
